Source: paper PMC9645344, “Serotonin-releasing agents with reduced off-target effects” (Molecular Psychiatry, 2022)

Columns and labels:
Assay in all cases: 5-HT receptor-dependent induction of GCamP6s fluorescence in HEK293 cells
Type in all cases: cell-based
5-HT2C receptor = target: T1, 5-HT2C receptor (Homo sapiens, UniProt P28335); conditions: 1 µM; GCamP6s fluorescence normalized to 1 µM 5-HT
T1 construct: expressed in transfected cells
T1 sequence (P28335 33-458): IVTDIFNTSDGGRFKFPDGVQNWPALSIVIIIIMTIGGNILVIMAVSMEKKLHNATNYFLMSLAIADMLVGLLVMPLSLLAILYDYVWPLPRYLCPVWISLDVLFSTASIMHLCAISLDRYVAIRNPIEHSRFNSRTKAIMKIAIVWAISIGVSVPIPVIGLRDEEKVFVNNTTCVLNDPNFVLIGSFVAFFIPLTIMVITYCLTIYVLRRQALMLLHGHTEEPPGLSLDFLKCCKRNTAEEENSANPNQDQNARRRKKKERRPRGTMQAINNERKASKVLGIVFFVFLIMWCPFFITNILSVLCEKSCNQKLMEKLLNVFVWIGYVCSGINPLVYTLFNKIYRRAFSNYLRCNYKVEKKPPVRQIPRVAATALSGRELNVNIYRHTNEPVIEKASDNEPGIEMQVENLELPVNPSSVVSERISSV
Procedure: (§1) All cloning steps were performed using NEB Builder (New England Biolabs, Frankfurt/Main, Germany). GCamP6s was cloned into pcDNA3.1. GCaMP is a genetically encoded calcium indicator which allows measurement of calcium flux. To allow for visual inspection of co-expressed 5-HT2 receptors, the enhanced cyan fluorescent protein (eCFP) was added to the C-Terminus of the 5-HT2 receptors. The resulting constructs were then cloned into pcDNA4-TO to allow tetracycline dependent expression.
(§2) In a first step, HEK293 cells were transfected with pcDNA6-TR and cells stably expressing the Tet-repressor were selected by the addition of blasticidin (60 µg ml^−1). In a second step, one of the resulting clones was transfected with one of the 5-HT2 receptor constructs and stable clones were selected by the addition of zeocin (150 µg ml^−1). Suitable clones were selected by visual inspection of the eCFP signal at the plasma membrane. In a last step, the eCFP positive clones were transfected with GCamp6s, and stable clones were selected using G418 (250 µg ml^−1). The resulting clones were sorted via FACS to isolate GCaMP6s (green fluorescent protein) positive cells and the resulting polyclonal cell lines were used for further experiments. Cells were maintained in DMEM supplemented with 2% fetal bovine serum, blasticidin, zeocin, and G418 at concentrations described above. To induce receptor expression, tetracycline (1 µg ml^−1) was added to the medium 18–24 h prior to the experiment.
(§3) Imaging experiments were performed at room temperature (22–27 °C). Medium was exchanged for KHB 10 min prior to the experiment and cells were continuously superfused with KHB, using a fast superfusion device (DAD12, ALA Scientific, Farmingdale, NY, USA). Test drugs (0.1, 1, 10 µM) or 5-HT (1 µM) were applied for 30 s, interleaved by KHB superfusion for 300 s. GCamp6s fluorescence was monitored using an inverted microscope (Nikon Eclipse Ti2) equipped with a Nikon ×40 WI (NA 1.25) objective (Nikon Europe, Amsterdam, Netherlands). Fluorescence was excited using a 470 nm LED (Coolled pe4000, Coolled, Andover, NY, USA). Excitation light was filtered through a 480/20 nm bandpass filter and reflected via 505 nm dichroic mirror. Emission light was filtered using a 535/25 nm optical bandpass filter (Nikon Europe, Amsterdam, Netherlands). Images were taken at a frequency of 1 image s^−1 with an exposure time of 20–30 ms using an sCMOS camera (Andor Zyla 5.5, Oxford Instruments, Abingdon, UK) and NIS-Elements 5.2 software (Laboratory Imaging, Praha, Czech Republic).
(§4) Image Stacks were background corrected by subtracting the mean intensity of […]. For each image the mean fluorescence intensity of 1–5 ROIs consisting of several clustered cells was measured. The change in intensity of the GCamP6s fluorescence was calculated as the intensity at the end of test drug application minus the intensity before substance application, normalized to the increase of fluorescence evoked by the application of 1 µM 5-HT. Data represent 1–5 fields of view from three independent experiments

5-HT2A receptor = target: T2, 5-HT2A receptor (Homo sapiens, UniProt P28223); conditions: GCamP6s fluorescence normalized to 1 µM 5-HT
T2 construct: expressed in transfected cells
Procedure: as §1, §2, §3, §4

5-HT2B receptor = 5-HT2B receptor (Homo sapiens, UniProt P41595); conditions: GCamP6s fluorescence normalized to 1 µM 5-HT
Procedure: as §1, §2, §3, §4

Sequence of 5-HT2B receptor (P41595 whole entry): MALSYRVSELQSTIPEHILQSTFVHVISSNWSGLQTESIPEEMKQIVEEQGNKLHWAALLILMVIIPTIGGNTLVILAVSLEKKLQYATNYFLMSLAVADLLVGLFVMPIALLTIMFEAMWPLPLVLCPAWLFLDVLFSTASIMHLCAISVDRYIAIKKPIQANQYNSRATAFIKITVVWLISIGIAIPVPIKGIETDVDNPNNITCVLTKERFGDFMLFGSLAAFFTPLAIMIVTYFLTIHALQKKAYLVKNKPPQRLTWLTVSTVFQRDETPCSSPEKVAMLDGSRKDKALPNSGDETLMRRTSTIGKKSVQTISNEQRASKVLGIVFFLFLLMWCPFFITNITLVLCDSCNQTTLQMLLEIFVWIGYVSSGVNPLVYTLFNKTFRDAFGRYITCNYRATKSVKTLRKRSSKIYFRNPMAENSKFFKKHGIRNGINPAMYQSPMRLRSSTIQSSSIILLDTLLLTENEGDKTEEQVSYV
T2 sequence (P28223 whole entry): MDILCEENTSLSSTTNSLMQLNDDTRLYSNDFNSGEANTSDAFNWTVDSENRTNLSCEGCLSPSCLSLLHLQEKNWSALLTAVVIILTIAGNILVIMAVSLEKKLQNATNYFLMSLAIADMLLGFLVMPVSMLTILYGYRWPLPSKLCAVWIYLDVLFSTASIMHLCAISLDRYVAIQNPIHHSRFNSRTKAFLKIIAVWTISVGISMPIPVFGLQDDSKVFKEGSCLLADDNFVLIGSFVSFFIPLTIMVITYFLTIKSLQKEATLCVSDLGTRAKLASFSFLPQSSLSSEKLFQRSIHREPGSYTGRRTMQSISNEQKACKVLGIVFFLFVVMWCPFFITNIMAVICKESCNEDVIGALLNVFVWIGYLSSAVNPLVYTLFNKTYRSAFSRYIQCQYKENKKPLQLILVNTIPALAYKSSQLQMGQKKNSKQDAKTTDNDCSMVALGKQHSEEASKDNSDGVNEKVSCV

Cc1ccc(C(=O)[C@H](C)N)cc1 [S-4-MC, 4-methylcathinone]
activation of 5-HT2C receptor (5-HT2C receptor): neither test drug activated
activation of 5-HT2A receptor (5-HT2A receptor; 1 µM): neither test drug activated
activation of 5-HT2A receptor (5-HT2A receptor; 10 µM): displayed activity
activation of 5-HT2B receptor (5-HT2B receptor; 1 µM): neither test drug activated
activation of 5-HT2B receptor (5-HT2B receptor; 10 µM): moderate effects

CN[C@@H](C)C(=O)c1ccc(C(F)(F)F)cc1 [S-4-TFMMC, 4-trifluoromethyl-N-methylcathinone]
activation of 5-HT2C receptor (5-HT2C receptor): neither test drug activated
activation of 5-HT2A receptor (5-HT2A receptor; 1 µM): neither test drug activated
activation of 5-HT2B receptor (5-HT2B receptor; 1 µM): neither test drug activated
